Columns and labels:
[1] = system: Human immunodeficiency virus 1; test: Antiviral activity against HIV1 3B harboring reverse transcriptase L100I mutant infected in human MT4 cells assessed as inhibition of virus-induced cytopathic effect after 5 days by MTT assay; format: functional, organism-based; details: Human immunodeficiency virus 1, 3B, MT4, 120 h
[2] = system: Human immunodeficiency virus 1; test: Antiviral activity against HIV1 3B harboring reverse transcriptase E138K mutant infected in human MT4 cells assessed as inhibition of virus-induced cytopathic effect after 5 days by MTT assay; format: functional, organism-based; details: Human immunodeficiency virus 1, 3B, MT4, 120 h
[3] = system: Human immunodeficiency virus 1; test: Antiviral activity against HIV1 3B harboring reverse transcriptase RES056 double mutant infected in human MT4 cells assessed as inhibition of virus-induced cytopathic effect after 5 days by MTT assay; format: functional, organism-based; details: Human immunodeficiency virus 1, 3B, MT4, 120 h
[4] = system: Human immunodeficiency virus 1; test: Antiviral activity against HIV1 3B harboring reverse transcriptase Y181C mutant infected in human MT4 cells assessed as inhibition of virus-induced cytopathic effect after 5 days by MTT assay; format: functional, organism-based; details: Human immunodeficiency virus 1, 3B, MT4, 120 h
[5] = Cytotoxicity against human MT4 cells assessed as reduction in cell viability after 5 days by MTT assay; format: cell-based
[6] = system: Human immunodeficiency virus 2; test: Antiviral activity against HIV2 ROD infected in human MT4 cells assessed as inhibition of virus-induced cytopathic effect after 5 days by MTT assay; format: functional, organism-based; details: Human immunodeficiency virus 2, ISOLATE ROD, MT4, 120 h
[7] = system: Human immunodeficiency virus 1; test: Antiviral activity against HIV1 3B harboring reverse transcriptase F227L/V106A double mutant infected in human MT4 cells assessed as inhibition of virus-induced cytopathic effect after 5 days by MTT assay; format: functional, organism-based; details: Human immunodeficiency virus 1, 3B, MT4, 120 h
[8] = system: Human immunodeficiency virus 1; test: Antiviral activity against HIV1 3B harboring reverse transcriptase Y188L mutant infected in human MT4 cells assessed as inhibition of virus-induced cytopathic effect after 5 days by MTT assay; format: functional, organism-based; details: Human immunodeficiency virus 1, 3B, MT4, 120 h
[9] = system: Human immunodeficiency virus 1; test: Antiviral activity against HIV1 3B harboring reverse transcriptase K103N mutant infected in human MT4 cells assessed as inhibition of virus-induced cytopathic effect after 5 days by MTT assay; format: functional, organism-based; details: Human immunodeficiency virus 1, 3B, MT4, 120 h
[10] = Selectivity index, ratio of CC50 for human MT4 cells to EC50 for wild type HIV1 3B infected in human MT4 cells; format: toxicity, cell-based; details: MT4 cells infected with wild type HIV1 3B, read-out: Ratio CC50/EC50
[11] = system: Human immunodeficiency virus 1; test: Antiviral activity against wild type HIV1 3B infected in human MT4 cells assessed as inhibition of virus-induced cytopathic effect after 5 days by MTT assay; format: functional, organism-based; details: Human immunodeficiency virus 1, 3B, MT4, 120 h
[12] = target: Human immunodeficiency virus type 1 reverse transcriptase (Human immunodeficiency virus 1, UniProt Q72547); test: Inhibition of recombinant wild type HIV1 reverse transcriptase using DIG-labeled dUTP/biotin-labeled dUTP and dTTP as template and viral nucleotides assessed as decrease in biotin-dUTP incorporation after 1 hr by ELISA

Row | Structure (SMILES) | EC50 [1] [nM] | EC50 [2] [nM] | EC50 [3] [µM] | EC50 [4] [nM] | CC50 at 120 h [5] [µM] | EC50 [6] [µM] | EC50 [7] [µM] | EC50 [8] [nM] | EC50 [9] [nM] | selectivity ratio [10] | EC50 [11] [nM] | IC50 [12] [nM]
1 | Cc1cc(C#N)cc(C)c1Oc1nc(NC2CCC(NC(=O)c3ccc(C#N)cc3)CC2)nc2ccsc12 (stereo not given) | > 2620 | 736 | > 2.62 | > 2620 | 2.62 | > 2.62 | > 2.62 | > 2620 | ≥ 1440 | 19 | 138 | 
2 | Cc1cc(C#N)cc(C)c1Oc1nc(NC2CCC(NC(=O)c3ccc(Br)cc3)CC2)nc2ccsc12 (stereo not given) | > 2850 | 370 | > 2.85 | > 2850 | 2.85 | > 2.85 | > 2.85 | > 2850 | 519 | 93 | 30 | 
3 | Cc1cc(C#N)cc(C)c1Oc1nc(NC2CCC(NC(=O)c3cccc(C(F)(F)F)c3)CC2)nc2ccsc12 (stereo not given) | > 3240 | ≥ 1330 | > 3.24 | > 3240 | 3.24 | > 3.24 | > 3.24 | > 3240 | > 3240 | 17 | 196 | 
4 | Cc1cc(C#N)cc(C)c1Oc1nc(Nc2ccc(C#N)cc2)nc(N)c1Br [ETRAVIRINE] | 9.7 |  | 0.026 | 19 | 2.18 |  | 0.023 | 20 | 3.4 |  | 2.8 | 
5 | CC(=O)Nc1ccc(S(=O)(=O)NC2CCC(Nc3nc(Oc4c(C)cc(C#N)cc4C)c4sccc4n3)CC2)cc1 (stereo not given) | 562 | 35 | > 3.73 | 513 | 3.73 | > 3.73 | 1.21 | 903 | 32 | 340 | 10 | 1040
6 | Cc1cc(C#N)cc(C)c1Oc1nc(NC2CCC(NS(=O)(=O)c3ccc(C#N)cc3)CC2)nc2ccsc12 (stereo not given) | 424 | 45 | > 9.28 | 428 | 9.29 | > 9.29 | 3.58 | 675 | 70 | 1310 | 7.1 | 1140
7 | Cc1cc(C#N)cc(C)c1Oc1nc(NC2CCC(NS(=O)(=O)c3ccc(Br)cc3)CC2)nc2ccsc12 (stereo not given) | 841 | 126 | 5.87 | 852 | 5.86 | > 5.86 | ≥ 6.14 | 2250 | 131 | 231 | 25 | 
8 | Cc1cc(C#N)cc(C)c1Oc1nc(NC2CCC(NS(=O)(=O)c3ccc(F)cc3)CC2)nc2ccsc12 (stereo not given) | 410 | 76 | > 3.52 | 472 | 3.53 | > 3.53 | > 3.52 | > 3520 | 103 | 383 | 9.2 | 
9 | Cc1cn([C@H]2C[C@H](N=[N+]=[N-])[C@@H](CO)O2)c(=O)[nH]c1=O [ZIDOVUDINE] | 5.4 | 17 | 0.011 | 6.3 | > 7.48 | 0.008 | 0.0053 | 8 | 7.8 | > 664 |  | 
10 | Cc1cc(C#N)cc(C)c1Oc1nc(NC2CCC(NS(=O)(=O)c3cccc(C(F)(F)F)c3)CC2)nc2ccsc12 (stereo not given) | ≥ 4090 | 642 | > 6.69 | ≥ 4340 | 6.68 | > 6.68 | > 6.69 | > 6690 | 569 | 78 | 86 | 
11 | Cc1cc(C#N)cc(C)c1Oc1nc(NC2CCC(NC(=O)c3ccccc3)CC2)nc2ccsc12 (stereo not given) | > 3920 | 183 | > 3.92 | ≥ 1510 | 3.93 | > 3.93 | > 3.92 | > 3920 | 273 | 294 | 13 | 
12 | Cc1cc(C#N)cc(C)c1Oc1nc(NC2CCC(NC(=O)c3ccc(F)cc3)CC2)nc2ccsc12 (stereo not given) | > 3180 | 230 | > 3.18 | > 3180 | 3.18 | > 3.18 | > 3.18 | > 3180 | 478 | 121 | 26 | 

— ChEMBL document CHEMBL4130567, “Discovery of Thiophene[3,2-d]pyrimidine Derivatives as Potent HIV-1 NNRTIs Targeting the Tolerant Region I of NNIBP” (ACS Med Chem Lett, 2017)
